Data published in PubChem BioAssay (NCI).
“And” between values parts separate entries of the source, which are not always exact repeats. Equal entries are not always repeated.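 Growth conditions: 96-well plates. Treatment: test compound, 48 hours, 5 concentrations. Analysis: linear interpolation between bracketing concentrations; unreached endpoints set to highest concentration. GI50 marks 50% less growth. TGI denotes the concentration required for complete inhibition of growth.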

Legend:
Experiment in all cases: DTP human tumour cell line panel, 48 h
CCRF-CEM leukemia = system: CCRF-CEM leukemia
K-562 leukemia = system: K-562 leukemia
A498 renal = system: A498 renal
RXF 393 renal = system: RXF 393 renal
T-47D breast = system: T-47D breast
HS 578T breast = system: HS 578T breast
HCT-15 colon = system: HCT-15 colon
SF-268 CNS = system: SF-268 CNS
SNB-75 CNS = system: SNB-75 CNS
SK-OV-3 ovarian = system: SK-OV-3 ovarian
786-0 renal = system: 786-0 renal
OVCAR-4 ovarian = system: OVCAR-4 ovarian
SK-MEL-2 melanoma = system: SK-MEL-2 melanoma
NCI-H226 lung = system: NCI-H226 lung
MDA-MB-231 breast = system: MDA-MB-231 breast
SNB-19 CNS = system: SNB-19 CNS
OVCAR-8 ovarian = system: OVCAR-8 ovarian
HCT-116 colon = system: HCT-116 colon
UO-31 renal = system: UO-31 renal
HT29 colon = system: HT29 colon
NCI/ADR-RES ovarian = system: NCI/ADR-RES ovarian
OVCAR-5 ovarian = system: OVCAR-5 ovarian
SW-620 colon = system: SW-620 colon
EKVX NSCLC = system: EKVX NSCLC
A549 NSCLC = system: A549 NSCLC
SK-MEL-5 melanoma = system: SK-MEL-5 melanoma
BT-549 breast = system: BT-549 breast
PC-3 prostate = system: PC-3 prostate
DU-145 prostate = system: DU-145 prostate
M14 melanoma = system: M14 melanoma
MCF7 breast = system: MCF7 breast
SR leukemia = system: SR leukemia
MDA-MB-435 = system: MDA-MB-435
IGROV1 ovarian = system: IGROV1 ovarian
HOP-62 NSCLC = system: HOP-62 NSCLC
NCI-H522 lung = system: NCI-H522 lung
HCC-2998 colon = system: HCC-2998 colon
NCI-H23 lung = system: NCI-H23 lung
KM12 colon = system: KM12 colon
TK-10 renal = system: TK-10 renal
U251 CNS = system: U251 CNS
SN12C renal = system: SN12C renal
RPMI-8226 leukemia = system: RPMI-8226 leukemia
ACHN renal = system: ACHN renal
OVCAR-3 ovarian = system: OVCAR-3 ovarian
COLO 205 colon = system: COLO 205 colon
LOX IMVI melanoma = system: LOX IMVI melanoma
UACC-62 melanoma = system: UACC-62 melanoma
HL-60(TB) leukemia = system: HL-60(TB) leukemia
SK-MEL-28 melanoma = system: SK-MEL-28 melanoma
HOP-92 NSCLC = system: HOP-92 NSCLC
NCI-H460 lung = system: NCI-H460 lung
MOLT-4 leukemia = system: MOLT-4 leukemia
CAKI-1 renal = system: CAKI-1 renal
UACC-257 melanoma = system: UACC-257 melanoma
SF-295 CNS = system: SF-295 CNS
MALME-3M melanoma = system: MALME-3M melanoma
SF-539 CNS = system: SF-539 CNS

NC(=O)Nc1cc(-c2cccc(F)c2)sc1C(=O)N[C@H]1CCCNC1
GI50 (CCRF-CEM leukemia): 41.4 nM and 124 nM | TGI (CCRF-CEM leukemia): > 2960 nM and 3000 nM | GI50 (K-562 leukemia): 94.9 nM and 254 nM | TGI (K-562 leukemia): > 10000 nM and 10500 nM | GI50 (A498 renal): 17.3 nM and 38.5 nM | TGI (A498 renal): 98.4 nM and 194 nM | GI50 (RXF 393 renal): 5.54 nM and 39.5 nM | TGI (RXF 393 renal): 25.5 nM and 244 nM | GI50 (T-47D breast): 1070 nM and 2710 nM | TGI (T-47D breast): > 10000 nM and 18800 nM | GI50 (HS 578T breast): 32.2 nM and 197 nM | GI50 (HCT-15 colon): 1300 nM and 1960 nM | TGI (HCT-15 colon): > 7180 nM and 10700 nM | GI50 (SF-268 CNS): 327 nM and 458 nM | TGI (SF-268 CNS): 3350 nM and 4140 nM | GI50 (SNB-75 CNS): 31.6 nM and 102 nM | TGI (SNB-75 CNS): 1010 nM and 1070 nM | GI50 (SK-OV-3 ovarian): 132 nM and 329 nM | TGI (SK-OV-3 ovarian): 1690 nM and 3170 nM | GI50 (786-0 renal): 71.7 nM and 166 nM | TGI (786-0 renal): 1350 nM and 634 nM | GI50 (OVCAR-4 ovarian): 222 nM and 310 nM | TGI (OVCAR-4 ovarian): > 10000 nM and 17300 nM | GI50 (SK-MEL-2 melanoma): 151 nM and 244 nM | TGI (SK-MEL-2 melanoma): > 3750 nM and 3150 nM | GI50 (NCI-H226 lung): 1090 nM and 570 nM | TGI (NCI-H226 lung): 8690 nM and 2900 nM | GI50 (MDA-MB-231 breast): 305 nM and 424 nM | TGI (MDA-MB-231 breast): 2820 nM and 2330 nM | GI50 (SNB-19 CNS): 562 nM and 540 nM | TGI (SNB-19 CNS): > 5850 nM and 6880 nM | GI50 (OVCAR-8 ovarian): 131 nM and 318 nM | TGI (OVCAR-8 ovarian): > 3360 nM and 2040 nM | GI50 (HCT-116 colon): 327 nM and 428 nM | TGI (HCT-116 colon): 6140 nM and 2850 nM | GI50 (UO-31 renal): 213 nM and 304 nM | TGI (UO-31 renal): 1790 nM and 1290 nM | GI50 (HT29 colon): 250 nM and 282 nM | TGI (HT29 colon): > 10000 nM and 1370 nM | GI50 (NCI/ADR-RES ovarian): 2190 nM and 3160 nM | TGI (NCI/ADR-RES ovarian): > 10000 nM and 19800 nM | GI50 (OVCAR-5 ovarian): 173 nM and 361 nM | TGI (OVCAR-5 ovarian): > 6200 nM and 4400 nM | GI50 (SW-620 colon): 284 nM and 423 nM | TGI (SW-620 colon): > 5030 nM and 3360 nM | GI50 (EKVX NSCLC): 576 nM and 1000 nM | TGI (EKVX NSCLC): > 5790 nM and 8280 nM | GI50 (A549 NSCLC): 188 nM and 356 nM | TGI (A549 NSCLC): 4480 nM and 2120 nM | GI50 (SK-MEL-5 melanoma): 295 nM and 456 nM | TGI (SK-MEL-5 melanoma): 2060 nM and 4270 nM | GI50 (BT-549 breast): 150 nM and 334 nM | TGI (BT-549 breast): 2050 nM and 1410 nM | GI50 (PC-3 prostate): 502 nM and 521 nM | TGI (PC-3 prostate): > 10000 nM and 17500 nM | GI50 (DU-145 prostate): 210 nM and 435 nM | TGI (DU-145 prostate): 2070 nM and 3810 nM | GI50 (M14 melanoma): 31 nM and 102 nM | TGI (M14 melanoma): 476 nM and 525 nM | GI50 (MCF7 breast): 28.5 nM and 144 nM | TGI (MCF7 breast): > 10000 nM and 13600 nM | GI50 (SR leukemia): 31.2 nM and 140 nM | GI50 (MDA-MB-435): 69 nM and 181 nM | TGI (MDA-MB-435): 371 nM and 668 nM | GI50 (IGROV1 ovarian): 70.1 nM and 270 nM | TGI (IGROV1 ovarian): 1160 nM and 1740 nM | GI50 (HOP-62 NSCLC): 87.6 nM and 292 nM | TGI (HOP-62 NSCLC): 1670 nM and 2820 nM | GI50 (NCI-H522 lung): 291 nM and 273 nM | TGI (NCI-H522 lung): 4870 nM and 2230 nM | GI50 (HCC-2998 colon): 117 nM and 273 nM | TGI (HCC-2998 colon): 1400 nM and 2640 nM | GI50 (NCI-H23 lung): 38 nM and 193 nM | TGI (NCI-H23 lung): 1520 nM and 2630 nM | GI50 (KM12 colon): 6.26 nM and 35.1 nM | TGI (KM12 colon): 6380 nM and 3300 nM | GI50 (TK-10 renal): 111 nM and 251 nM | TGI (TK-10 renal): 1580 nM and 1380 nM | GI50 (U251 CNS): 354 nM and 526 nM | TGI (U251 CNS): > 4590 nM and 2530 nM | GI50 (SN12C renal): 88.9 nM and 218 nM | TGI (SN12C renal): 3280 nM and 3270 nM | GI50 (RPMI-8226 leukemia): 660 nM and 482 nM | TGI (RPMI-8226 leukemia): > 8220 nM and 6110 nM | GI50 (ACHN renal): 51.2 nM and 95.2 nM | TGI (ACHN renal): > 4730 nM and 2750 nM | GI50 (OVCAR-3 ovarian): 168 nM and 550 nM | TGI (OVCAR-3 ovarian): 4560 nM and 5170 nM | GI50 (COLO 205 colon): 169 nM and 216 nM | TGI (COLO 205 colon): 937 nM and 645 nM | GI50 (LOX IMVI melanoma): 60.3 nM and 199 nM | TGI (LOX IMVI melanoma): 1040 nM and 1120 nM | GI50 (UACC-62 melanoma): 388 nM and 353 nM | TGI (UACC-62 melanoma): > 5100 nM and 3430 nM | GI50 (HL-60(TB) leukemia): 101 nM and 291 nM | TGI (HL-60(TB) leukemia): 3880 nM and 1280 nM | GI50 (SK-MEL-28 melanoma): 2950 nM and 3530 nM | TGI (SK-MEL-28 melanoma): > 10000 nM and 16900 nM | GI50 (HOP-92 NSCLC): 55.3 nM and 416 nM | TGI (HOP-92 NSCLC): 1200 nM and 1710 nM | GI50 (NCI-H460 lung): 207 nM and 467 nM | TGI (NCI-H460 lung): 3320 nM and 4220 nM | GI50 (MOLT-4 leukemia): 60.6 nM and 260 nM | TGI (MOLT-4 leukemia): > 10000 nM and 1800 nM | GI50 (CAKI-1 renal): 184 nM and 888 nM | TGI (CAKI-1 renal): > 3980 nM and 4200 nM | GI50 (UACC-257 melanoma): 2360 nM and 1910 nM | TGI (UACC-257 melanoma): > 10000 nM and 9820 nM | GI50 (SF-295 CNS): 39.7 nM and 88.2 nM | TGI (SF-295 CNS): 776 nM and 2870 nM | GI50 (MALME-3M melanoma): 232 nM and 729 nM | TGI (MALME-3M melanoma): 4950 nM and 6800 nM | GI50 (SF-539 CNS): 19.2 nM and 61.6 nM | TGI (SF-539 CNS): 170 nM and 331 nM
